As a reminder, the Ki is a measure of affinity in units of concentration, obtained from inhibition or displacement. High values mean lower affinity, low ones higher affinity. By IC50 is commonly meant the concentration needed to halve the response being measured.

Where two headings read alike, the source gives them in different places.

In assay [1] the target is T1, OX2 (Homo sapiens, UniProt O43614).
T1 sequence (O43614 1-444): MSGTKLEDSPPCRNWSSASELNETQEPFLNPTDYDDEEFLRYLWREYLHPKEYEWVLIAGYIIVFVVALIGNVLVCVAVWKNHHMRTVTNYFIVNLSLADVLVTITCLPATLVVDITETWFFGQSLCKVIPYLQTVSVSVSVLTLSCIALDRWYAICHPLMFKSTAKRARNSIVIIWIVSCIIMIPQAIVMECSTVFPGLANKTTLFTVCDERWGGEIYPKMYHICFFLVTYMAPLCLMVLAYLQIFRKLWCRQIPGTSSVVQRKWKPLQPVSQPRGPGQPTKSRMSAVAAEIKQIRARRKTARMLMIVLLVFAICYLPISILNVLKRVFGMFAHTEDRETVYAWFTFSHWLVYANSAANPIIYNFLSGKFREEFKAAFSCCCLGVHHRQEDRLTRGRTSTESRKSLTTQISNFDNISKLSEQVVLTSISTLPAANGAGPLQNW
The assay can be described thus: Measurement of antagonism (PLAP assay), OX2. Format: cell-based. More on the design: expressed in transfected cells; host or cells: HEK-293 cells, expression vector pBabeCLIH. The method, then: (§1) 2. Measurement of Antagonism (PLAP Assay)
(§2) The antagonistic function of the compound of the present invention to prevent the activation of OX2 and OX1 by orexin-A (OX-A), which is a natural peptide agonist, was measured using a cell-based reporter assay. […] The cells were plated at a density of 10,000 cells/well onto a non-coated 96-well plate in Dulbecco's modified Eagle medium (Sigma Cat No. D6046:10% v/v heat-inactivated fetal bovine serum was contained). The cells were cultured at 37° C. overnight, so that they could adhere to the plate. On the following day, cells were incubated with a compound of the present invention dissolved in Dulbecco's modified Eagle medium (Sigma Cat No. A8806:0.1% w/v bovine serum albumin was contained), and added to the cell plate to reach a final concentration of 0.1% dimethyl sulfoxide.
(§3) The thus obtained mixture was incubated at room temperature for 1 hour. Thereafter, human OX-A and forskolin were dissolved in the same medium as described above, which contained fetal bovine serum albumin, and the medium was then added to the cells, resulting in a final concentration of 300 nM forskolin. Subsequently, the cells were cultured at 37° C. for approximately 18 to 24 hours.

The target of assay [2] is T2, OX1 (Homo sapiens, UniProt O43613).
T2 sequence (O43613 1-425): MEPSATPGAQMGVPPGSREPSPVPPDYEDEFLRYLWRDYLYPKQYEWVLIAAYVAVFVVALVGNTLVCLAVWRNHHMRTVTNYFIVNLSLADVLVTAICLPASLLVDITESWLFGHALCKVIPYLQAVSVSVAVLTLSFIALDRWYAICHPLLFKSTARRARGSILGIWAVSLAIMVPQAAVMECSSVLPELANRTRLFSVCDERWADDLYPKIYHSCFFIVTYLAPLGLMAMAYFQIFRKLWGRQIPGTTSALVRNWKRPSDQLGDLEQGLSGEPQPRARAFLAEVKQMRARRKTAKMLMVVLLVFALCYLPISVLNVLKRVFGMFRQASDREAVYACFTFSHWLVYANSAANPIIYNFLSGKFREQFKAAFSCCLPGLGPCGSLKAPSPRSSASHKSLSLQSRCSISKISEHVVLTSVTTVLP
The assay can be described thus: Measurement of antagonism (PLAP assay), OX1. Format: cell-based. More on the design: expressed in transfected cells; host or cells: HEK-293 cells, expression vector pBabeCLIH. The method, then: as §1, §2, §3

For assay [3], the target named is T1, OX2. The assay can be described thus: Measurement of orexin receptor-binding ability ([125I]-OX-A, cell membranes, OX2). More on the design: expressed in transfected cells; host or cells: CHO cells (membrane preparation). Conditions: membranes of recombinant CHO cells expressing OX2, 0.2 nM [125I]-OX-A.
For the next assay, the system named is mice (C57BL/6NCrlCrLj). The experiment in a line: Sleep experiment (EEG/EMG) in mice. Format: in vivo. The protocol: As a method for measuring the influence of the present compound on sleep time, electroencephalogram (EEG) and electromyogram (EMG) measurements were carried out in mice (C57BL/6NCrlCrLj).
In order to measure brain waves and muscle signals, EEG and EMG electrode implantation was performed on individual mice, and the mice were then housed in a state in which they could freely move and habituate in individual recording cages for 1 week or longer. Thereafter, amplified EEG and EMG signals were digitally recorded.
Mice received either oral administration of vehicle or test compound in vehicle, after which sleep/wake behavior of mice was recorded for 3 hours.
For sleep analysis, automatic analysis software from Kissei Comtec Co., Ltd. was used to analyze EEG frequency and EMG activity signals in detail and to determine sleep and wake states. Thereafter, accumulated sleeping time over 3 hours was calculated.
The effect of the compound to increase sleep time was evaluated as the difference between sleeping time on the vehicle-administration day and the sleep time on the subsequent drug-administration day.
The minimum effective dose (MED; mg/kg) was obtained from accumulated sleep time of mice with three hours after the administration.

In assay [4] the target is T2, OX1. The experiment in a line: Measurement of orexin receptor-binding ability ([125I]-OX-A, cell membranes, OX1). Set-up: expressed in transfected cells; host or cells: CHO cells (membrane preparation).
[5] abbreviates: mice, oral administration, difference to vehicle day, 3 hours.
The mark [6] stands for this setting: membranes of recombinant CHO cells expressing OX1, 0.2 nM [125I]-OX-A, read-out: OX1 (IC50).

In the case of `Cc1ncc(OC[C@@]2(c3ccccc3)C[C@H]2C(=O)Nc2ccncc2)c(C)n1` [Example 67], the Ki on OX2 [1] was 0.057 µM; at OX1 [2] it was above 0.667 µM.

In the case of `Cc1ncc(OC[C@@]2(c3cccc(F)c3)C[C@H]2C(=O)Nc2ccc(C#N)cn2)c(C)n1` [Example 96, (1R,2S)-N-(5-cyanopyridin-2-yl)-2-{[(2,4-dimethylpyrimidin-5-yl)oxy]methyl}-2-(3-fluorophenyl)cyclopropanecarboxamide], the IC50 on OX2 [3] (OX2 (IC50) nM) amounted to 5 nM; on OX1 [4], 0.032 µM. Besides, in the assay with mice (C57BL/6NCrlCrLj) (setting [5]), the “Sleep extended time 10 mg/kg (min/3 hrs)” value is 12.1 min/3 hrs.

Regarding `Cc1ncc(OC[C@@]2(c3cc(F)cc(F)c3)C[C@H]2C(=O)Nc2ccc(F)cc2)c(C)n1` [Example 130, (1R,2S)-2-(3,5-difluorophenyl)-2-{[(2,4-dimethylpyrimidin-5-yl)oxy]methyl}-N-(4-fluorophenyl)cyclopropanecarboxamide], the IC50 came to 4 nM at OX2 [3] (read-out: OX2 (IC50)) and 0.022 µM on OX1 [4] (setting [6]). For the same compound, the “Sleep extended time 10 mg/kg (min/3 hrs)” value in the assay on mice (C57BL/6NCrlCrLj) (po, 3 h) was determined as 24.2 min/3 hrs.

`COCc1nc(C)ncc1OC[C@@]1(c2ccccc2)C[C@H]1C(=O)Nc1ccc(F)cn1` [Example 141, (1R,2S)-N-(5-fluoropyridin-2-yl)-2-{[(4-(methoxymethyl)-2-methylpyrimidin-5-yl)oxy]methyl}-2-phenylcyclopropanecarboxamide]: the IC50 on OX2 [3] (read-out: OX2 (IC50)) was determined as 1.3 nM; on OX1 [4] (setting [6]) it was 0.009 µM. Also, the “Sleep extended time 10 mg/kg (min/3 hrs)” value with mice (C57BL/6NCrlCrLj) (po, 3 h) worked out at 28.7 min/3 hrs.

Turning to `Cc1ncc(OC[C@@]2(c3cccc(F)c3)C[C@H]2C(=O)Nc2ccc(F)cn2)c(C)n1` [Example 95, (1R,2S)-2-{[(2,4-dimethylpyrimidin-5-yl)oxy]methyl}-2-(3-fluorophenyl)-N-(5-fluoropyridin-2-yl)cyclopropanecarboxamide], the Ki at OX1 [2] was 0.0099 µM. The “Sleep extended time 10 mg/kg (min/3 hrs)” value in the assay with mice (C57BL/6NCrlCrLj) (setting [5]) is 39.8 min/3 hrs. The “minimum effective dose (MED)” value in the assay on mice (C57BL/6NCrlCrLj) (mice, oral, doses 0.3 to 100 mg/kg, accumulated sleep time within three hours after administration) is listed as at most 1 mg/kg. The compound also gave an IC50 on OX1 [4] of 0.0134 µM.

With `COc1cc(NC(=O)[C@@H]2C[C@@]2(COc2cnc(C)nc2C)c2ccccc2)ncc1F` [Example 73, (1R,2S)-2-{[(2,4-dimethylpyrimidin-5-yl)oxy]methyl}-N-(5-fluoro-4-methoxypyridin-2-yl)-2-phenylcyclopropanecarboxamide], the IC50 at OX2 [3] (read-out: OX2 (IC50)) was 5.7 nM; at OX1 [4] (setting [6]), 0.0034 µM. For the same compound, the “Sleep extended time 10 mg/kg (min/3 hrs)” value with mice (C57BL/6NCrlCrLj) (po, 3 h) was 22.7 min/3 hrs.

On to `COCc1nc(C)ncc1OC[C@@]1(c2cccc(F)c2)C[C@H]1C(=O)Nc1cc(C)c(F)cn1` [Example 199, (1R,2S)-N-(5-fluoro-4-methylpyridin-2-yl)-2-(3-fluorophenyl)-2-{[(4-methoxymethyl-2-methylpyrimidin-5-yl)oxy]methyl}cyclopropanecarboxamide], for which the IC50 on OX2 [3] (read-out: OX2 (IC50)) was 2 nM; at OX1 [4] (setting [6]), 0.002 µM. Also, the “Sleep extended time 10 mg/kg (min/3 hrs)” value in the assay on mice (C57BL/6NCrlCrLj) (po, 3 h) was determined as 36.2 min/3 hrs.

With `COCc1nc(C)ncc1OC[C@@]1(c2cccc(F)c2)C[C@H]1C(=O)Nc1ccc(F)cn1` [Example 191, (1R,2S)-2-(3-fluorophenyl)-N-(5-fluoropyridin-2-yl)-2-[(4-methoxymethyl-2-methylpyrimidin-5-yl)oxymethyl]cyclopropanecarboxamide], the values for the IC50 on OX2 [3] (OX2 (IC50) nM) and at OX1 [4] were 1 nM and 0.001 µM, respectively. Besides, the “Sleep extended time 10 mg/kg (min/3 hrs)” value in the assay with mice (C57BL/6NCrlCrLj) (setting [5]) is 41.8 min/3 hrs.

Regarding `Cc1ncc(OC[C@@]2(c3ccc(F)cc3)C[C@H]2C(=O)Nc2ccc(F)cc2)c(C)n1` [Example 105, (1R,2S)-N,2-bis(4-fluorophenyl)-2-{[(2,4-dimethylpyrimidin-5-yl)oxy]methyl}-N,2-bis(4-fluorophenyl)cyclopropanecarboxamide], the IC50 came out at 18 nM at OX2 [3] (OX2 (IC50) nM) and 0.195 µM at OX1 [4]. In addition, in the assay with mice (C57BL/6NCrlCrLj) (setting [5]), the “Sleep extended time 10 mg/kg (min/3 hrs)” value was determined as 14.3 min/3 hrs.

Turning to `Cc1ncc(OC[C@@]2(c3ccc(Br)cc3)C[C@H]2C(=O)Nc2ccc(F)cn2)c(C)n1` [Example 274], the figures for the IC50 on OX2 [3] (OX2 (IC50) nM) and on OX1 [4] were 19 nM and 0.059 µM, respectively.

Take `Cc1ncc(OC[C@@]2(c3cc(F)cc(F)c3)C[C@H]2C(=O)Nc2ccc(F)cc2F)c(C)n1` [Example 135, (1R,2S)-N-(2,4-difluorophenyl)-2-(3,5-difluorophenyl)-2-{[(2,4-dimethylpyrimidin-5-yl)oxy]methyl}cyclopropanecarboxamide]: the values for the IC50 on OX2 [3] (read-out: OX2 (IC50)) and on OX1 [4] (setting [6]) were 8 nM and 0.014 µM, respectively.

Consider `Cc1ncc(OC[C@@]2(c3ccccc3)C[C@H]2C(=O)Nc2cccc(F)n2)c(C)n1` [Example 68], for which the IC50 at OX2 [3] (OX2 (IC50) nM) was found to be 56 nM; on OX1 [4], 0.14 µM.

Take `COc1ccc([C@]2(COc3cnc(C)nc3C)C[C@H]2C(=O)Nc2ccc(F)cn2)cc1F` [Example 322, (1R,2S)-2-{[(2,4-dimethylpyrimidin-5-yl)oxy]methyl}-2-(3-fluoro-4-methoxyphenyl)-N-(5-fluoropyridin-2-yl)cyclopropanecarboxamide]: the figures for the concentration for half-maximal inhibition (IC50) on OX2 [3] (OX2 (IC50) nM) and on OX1 [4] were 7 nM and 0.03 µM, respectively.

With `Cc1ncc(OC[C@@]2(c3cccc(F)c3)C[C@H]2C(=O)Nc2ccc(F)cn2)c(CO)n1` [Example 286, (1R,2S)-2-(3-fluorophenyl)-N-(5-fluoropyridin-2-yl)-2-{[(4-hydroxymethyl-2-methylpyrimidin-5-yl)oxy]methyl}-2-(3-fluorophenyl)cyclopropanecarboxamide], the IC50 was 4.5 nM on OX2 [3] (OX2 (IC50) nM) and above 0.2 µM on OX1 [4].

As to `Cc1nc(C)[n+]([O-])cc1OC[C@@]1(c2ccccc2)C[C@H]1C(=O)Nc1ccc(F)nc1` [Example 81, (1R,2S)-2-[(2,4-dimethyl-1-oxopyrimidin-5-yl)oxymethyl]-N-(6-fluoropyridin-3-yl)-2-phenylcyclopropanecarboxamide], the IC50 came to 63 nM on OX2 [3] (read-out: OX2 (IC50)) and 2.59 µM on OX1 [4] (setting [6]).

Regarding `COc1cccc([C@]2(COc3cnc(C)nc3C)C[C@H]2C(=O)Nc2ccc(F)c(F)c2)c1` [Example 190, (1R,2S)-N-(3,4-difluorophenyl)-2-{[(2,4-dimethylpyrimidin-5-yl)oxy]methyl}-2-(3-methoxyphenyl)cyclopropanecarboxamide], the IC50 came out at 5 nM on OX2 [3] (read-out: OX2 (IC50)) and 0.011 µM at OX1 [4] (setting [6]).

Values taken from patent publication US8268848B2, “Cyclopropane compound” (Eisai R&D Management Co., Ltd., priority 2010, dated 2012).
